Experimental data taken from article PMC7767221, “Conjugates Containing Two and Three Trithiolato-Bridged Dinuclear Ruthenium(II)-Arene Units as In Vitro Antiparasitic and Anticancer Agents” (Pharmaceuticals, 2020).
Read-outs that look alike come from different tables or passages of the source.

Tests used:
[1] = test system: T. gondii β-gal tachyzoites; assay: T. gondii β-gal tachyzoite proliferation in HFF (β-galactosidase / CPRG assay); assay type: cell-based, Toxoplasma gondii; conditions: 72 h, % of DMSO control
Excerpt: (§1) If not otherwise stated, all tissue culture media were purchased from Gibco-BRL, and biochemical agents purchased from Sigma-Aldrich. HFF (SCRC-1041.1) were purchased from ATCC, and were maintained in DMEM medium containing 10% fetal calf serum (FCS, Gibco-BRL, Waltham, MA, USA), and antibiotics as described. Transgenic T. gondii β-gal (expressing the β-galactosidase gene from Escherichia coli) were kindly provided by Prof. David Sibley (Washington University, St. Louis, MO, USA) and were maintained in HFF as host cells, and were isolated as described before.
Compounds were prepared as 1 mM stock solutions in DMSO (dimethyl sulfoxide, Sigma, St. Louis, MO, USA). For activity assays, HFF monolayers were cultured in 96 well plates by seeding 5 × 10^3 HFF per well and allowing them to grow to confluence in phenol-red free culture medium at 37 °C/5% CO2. For infection, T. gondii β-gal tachyzoites were separated from their host cells as described, parasites were isolated and HFF monolayers were infected with freshly isolated tachyzoites (1 × 10^3 per well), with compounds solutions added concomitantly during infection.
For the primary screening, T. gondii β-gal infected HFF were exposed to 0.1 and 1µM of each compound for a period of 72 h, or the corresponding concentration of DMSO (0.01% and 0.1%, respectively) as control. For the determination of IC50 values against T. gondii β-gal, compounds were added at 8 concentrations: 0.007, 0.01, 0.03, 0.06, 0.12, 0.25, 0.5, and 1 µM. After 72 h of culture at 37 °C/5% CO2, the medium was aspirated, and cells were permeabilized by adding 90 µL PBS (phosphate buffered saline) containing 0.05% Triton X-100. After addition of 10 µL 5 mM chlorophenol red-β-D-galactopyranoside (CPRG; Roche Diagnostics, Rotkreuz, Switzerland) dissolved in PBS, the absorption shift was measured at 570 nm wavelength at various time points using an EnSpire® multimode plate reader (PerkinElmer, Inc, Waltham, MA, USA). For the primary screening at 0.1 and 1 μM, the activity, measured as the release of chlorophenol red over time, was calculated as percentage from the respective DMSO control, which represented 100% of T. gondii β-gal growth. For the IC50 assays, the activity measured as the release of chlorophenol red over time was proportional to the number of live parasites down to 50 per well as determined in pilot assays. IC50 values were calculated after the logit-log-transformation of relative growth and subsequent regression analysis. All calculations were performed using the corresponding software tool contained in the Excel software package (Microsoft, Redmond, WA, USA).

[2] = test system: HFF (human foreskin fibroblasts); assay: Cytotoxicity in uninfected confluent HFF host cells (AlamarBlue assay); assay type: cell-based; conditions: 72 h, non-infected HFF
Excerpt: as §1
Cytotoxicity assays using uninfected confluent HFF host cells were performed as previously described by AlamarBlue assay. In brief, confluent HFF monolayers in 96 well-plates were exposed to 0.1, 1 and 2.5 µM of each compound. Non-treated HFF as well as DMSO controls (0.01%, 0.1% and 0.25%) were included. After 72 h of incubation at 37 °C/5% CO2, the medium was removed, and plates were washed once with PBS. Resazurin stock solution was diluted 1:200 in PBS and 200 µL were added to each well. Plates were read at excitation wavelength 530 nm and emission wavelength […] at the EnSpire® multimode plate reader (PerkinElmer, Inc). Fluorescence was measured at different timepoints. Relative fluorescence units were calculated from timepoints with linear increase.

[3] = test system: (D-)A24cisPt8.0 cells; assay: Growth inhibition, 72 h, cell density by Casy cell analyzer; assay type: cell-based, human; conditions: 72 h exposure, mean ± SD
Excerpt: (§2) Human ovarian carcinoma cells A2780 and the cisPt resistant variant A2780cisR were purchased from the European Center of Cell Cultures (ECACC, Salisbury, UK). The HEK-293 cell line was kindly provided by Prof. Mühlemann, University of Bern. The A24 cells and its subline (D-)A24cisPt8.0 were described previously. The cancer cells A24 and (D-)A24cisPt8.0 [105] (human lung adenocarcinoma cells wild type A24 and cisPt resistant (D-)A24cisPt8.0 subline), A2780 and A2780cisR (human ovarian cisplatin sensitive and resistant cancer cells), together with HEK293 (human embryonic kidney) cells as model for normal cells, were included in the study for the evaluation of the ruthenium compounds’ selectivity and cross-resistance with cisplatin. The A24 sublines, A2780 and A2780cisR were cultured in RPMI 1640 medium without riboflavin, phenol red and antibiotics, buffered with 4.5 mM HEPES (BioConcept, Allschwil, Switzerland), supplemented with 10% (v/v) fetal bovine serum (FBS) (Thermo Scientific, Weltham, MA, USA) as the only source of flavins, and with 13.5 mM NaHCO3. In order to retain cisplatin resistance in the A2780cisR cell line, 1 µM cisplatin was added to the medium every 2–3 passages. HEK293 cells were cultured in DMEM/F12 medium, supplemented with 10% (v/v) FBS. At subcultivation, cell monolayers were rinsed with PBS and exposed for 3 min to StemPro Accutase Cell Dissociation Reagent (Thermo Scientific, Weltham, MA, USA) at 36.5 °C. Detached cells were resuspended in culture medium. Cell densities were determined using Moxi flow cytometer according to manufacturer instructions (Orflo Technologies, Ketchum, ID, USA). Experiments and subcultivations were performed using light with wavelengths above 520 nm to prevent photochemical artifacts. Cytostatic drug response was quantified as previously reported. Briefly, HEK293, A24, A2780, A2780cisR, and (D-)A24cisPt8.0 single cell suspensions were freshly prepared from confluent cell layers using Accutase and diluted in culture medium to a cell density of 2 × 10^4 or 8 × 10^4 cells/mL (D-)A24cisPt8.0. 150 µl of this suspension was combined with 150 µl of twice the cisPt or Ru-compound concentration in a 96-well microtiter plate (TPP, Trasadingen, Switzerland). Test plates were incubated under standard conditions for 72 h. Cell densities were determined in a Casy I cell analyzer using Casystat software (OLS OMNI Life Science, Bremen, Germany). Drug concentrations leading to 50% growth inhibition compared to controls were calculated using GraphPad Software (La Jolla, CA, USA). Each experiment was done in triplicates.

[4] = test system: A24 cells; assay: as above; assay type: cell-based, human; conditions: 72 h exposure, mean ± SD
Excerpt: as §2

[5] = test system: A2780 cells; assay: as above; assay type: cell-based, human; conditions: 72 h exposure, mean ± SD
Excerpt: as §2

[6] = test system: A2780cisR cells; assay: as above; assay type: cell-based, human; conditions: 72 h exposure, mean ± SD
Excerpt: as §2

[7] = test system: HEK293 cells; assay: as above; assay type: cell-based, human; conditions: 72 h exposure, mean ± SD
Excerpt: as §2

[8] = test system: T. gondii β-gal tachyzoites; conditions: 72 h, tachyzoites grown in HFF; previously reported; cited from earlier work
[9] = test system: Neospora caninum; set-up: method as in PMID 28652238, PMID 30620038, PMID 31469986; conditions: read-out: N. caninum proliferation IC50; cited from earlier work
[10] = test system: Neospora caninum; set-up: method as in PMID 28652238, PMID 30620038, PMID 31469986; conditions: applied orally, neosporosis mouse model; cited from earlier work
[11] = test system: T. gondii; set-up: method as in PMID 28652238; conditions: cited from earlier work; for parasiticidal action on T. gondii: applied at 250 nM; for IC50: read-out: T. gondii proliferation IC50
[12] = test system: HFF host cells; conditions: cited from earlier work
[13] = test system: (D-)A24cisPt8.0 cells; set-up: method as in PMID 32485798; conditions: cited from earlier work
[14] = test system: A2780 cells; conditions: read-out: IC50 against A2780 cells; cited from earlier work
[15] = test system: A2780cisR cells; set-up: method as in PMID 27561129, doi:10.1016/j.jorganchem.2014.10.050, PMID 27187018; conditions: read-out: IC50 against A2780cisR cells; cited from earlier work

| Compound | IC50 [3] | IC50 [4] | IC50 [5] | IC50 [6] | IC50 [7] | IC50 [9] | parasite load in the central nervous system [10] | parasiticidal action on T. gondii [11] | further results |
| --- | --- | --- | --- | --- | --- | --- | --- | --- | --- |
| [(η6-p-MeC6H4Pri)2Ru2(μ2-SCH2C6H4-p-But)2(μ2-SC6H4-p-O)-(CO)(CH2)3(CO)-(p-O-C6H4-μ2S)Ru2(μ2-SCH2C6H4-p-But)2(η6-p-MeC6H4Pri)2]Cl2 [Compound 7] | 0.053 ± 0.007 µM | 0.033 ± 0.002 µM | 0.097 ± 0.041 µM | 0.072 ± 0.008 µM | 0.085 ± 0.026 µM |  |  |  | T. gondii β-gal growth (%) 0.1 µM [1]: 68 ± 2%; T. gondii β-gal growth (%) 1 µM [1]: 0 ± 6%; HFF viability (%) 0.1 µM [2]: 76 ± 2%; HFF viability (%) 1 µM [2]: 25 ± 4% |
| CCc1nc(N)nc(N)c1-c1ccc(Cl)cc1 [Pyrimethamine, pyrimethamine] |  |  |  |  |  |  |  |  | IC50 [8]: 326 nM |
| [(η^6-p-MeC6H4Pr^i)2Ru2(µ2-S-p-C6H4R)3]^+ with R = p-Me [A] |  |  |  |  |  | 15 nM | did not reduce parasite load in the central nervous system | did not act in a parasiticidal manner | IC50 [11]: 34 nM; dosage that did not affect HFF host cells [12]: ≥ 200 µM |
| N.N.[Cl][Pt][Cl] [cisPt, cis-diamminedichloroplatinum(II)] | 8.89 ± 0.446 µM | 0.333 ± 0.075 µM | 0.21 ± 0.119 µM | 4.08 ± 0.21 µM | 0.515 ± 0.064 µM |  |  |  | resistance to cisplatin of (D-)A24cisPt8.0 subline compared to the A24 cells [13]: approximately 30 fold |
| [(η^6-p-MeC6H4Pr^i)2Ru2(µ2-SR^1)(µ2-SR^2)2]^+ with R^1 = CH2-C6H4-p-Bu^t, R^2 = C6H4-p-OH, X = Cl^- [D] |  |  |  |  |  | 1 nM | did not reduce parasite load in the central nervous system | did not act in a parasiticidal manner |  |
| [(η6-p-MeC6H4Pri)2Ru2(μ2-SCH2C6H4-p-But)2(μ2-SC6H4-p-NH)-(CO)-m-C6H4-(CO)-(p-NH-C6H4-μ2S)Ru2(μ2-SCH2C6H4-p-But)2(η6-p-MeC6H4Pri)2]Cl2 [Compound 17] | 0.09 ± 0.003 µM | 0.24 ± 0.016 µM | 0.416 ± 0.106 µM | 0.644 ± 0.08 µM | 0.447 ± 0.043 µM |  |  |  | T. gondii β-gal growth (%) 0.1 µM [1]: 117 ± 7%; T. gondii β-gal growth (%) 1 µM [1]: 109 ± 6%; HFF viability (%) 0.1 µM [2]: 102 ± 2%; HFF viability (%) 1 µM [2]: 106 ± 7% |
| [(η^6-p-MeC6H4Pr^i)2Ru2(µ2-S-p-C6H4R)3]^+ with R = p-Bu^t |  |  |  |  |  | 5 nM | did not reduce parasite load in the central nervous system | did not act in a parasiticidal manner | IC50 [11]: 62 nM; IC50 [14]: 30 nM; IC50 [15]: 30 nM; dosage that did not affect HFF host cells [12]: ≥ 200 µM |
